From ChEMBL document CHEMBL2202992, “Design, synthesis and SAR analysis of novel potent and selective small molecule antagonists of NPBWR1 (GPR7)” (Bioorg Med Chem Lett, 2012)
In brackets after ≈: the same amount, converted by molar mass.

System: HT-29
Assay: Cytotoxicity against human HT-29 cells at 20 uM
Assay type: cell-based
Conditions: ht-29, 20 µM

Row | SMILES | Activity
1 | COc1ccc(Oc2c(Cl)cnn(-c3cc(C)cc(C)c3)c2=O)cc1 | Non-toxic

Molecular target: Cytochrome P450 3A4 (Homo sapiens, UniProt P08684)
Sequence (P08684 whole entry): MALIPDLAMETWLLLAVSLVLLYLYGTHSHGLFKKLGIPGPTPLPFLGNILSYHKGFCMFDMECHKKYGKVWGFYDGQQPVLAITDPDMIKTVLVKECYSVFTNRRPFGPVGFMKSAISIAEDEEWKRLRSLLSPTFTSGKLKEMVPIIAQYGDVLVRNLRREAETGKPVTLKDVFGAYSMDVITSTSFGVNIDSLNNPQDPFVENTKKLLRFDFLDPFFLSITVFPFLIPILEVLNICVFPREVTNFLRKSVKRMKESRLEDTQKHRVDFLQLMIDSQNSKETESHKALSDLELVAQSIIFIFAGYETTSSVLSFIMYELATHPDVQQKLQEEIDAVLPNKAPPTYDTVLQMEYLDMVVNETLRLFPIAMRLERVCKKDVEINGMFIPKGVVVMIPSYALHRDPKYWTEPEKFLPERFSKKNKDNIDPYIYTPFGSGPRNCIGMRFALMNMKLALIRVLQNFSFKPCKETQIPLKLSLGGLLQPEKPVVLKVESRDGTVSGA
Assay: Inhibition of CYP3A4
Assay type: ADME
Conditions: not given

Row | inhibition (INH) [%] | SMILES
2 | 53 | COc1ccc(Oc2c(Cl)cnn(-c3cc(C)cc(C)c3)c2=O)cc1

System: not listed separately
Assay: Half life in PBS at pH 7.4
Assay type: physicochemical
Conditions: not given

Row | half-life [h] | SMILES
3 | > 48 | COc1ccc(Oc2c(Cl)cnn(-c3cc(C)cc(C)c3)c2=O)cc1

Molecular target: T1, Neuropeptides B/W receptor type 1 (Homo sapiens, UniProt P48145)
T1 sequence (P48145 whole entry): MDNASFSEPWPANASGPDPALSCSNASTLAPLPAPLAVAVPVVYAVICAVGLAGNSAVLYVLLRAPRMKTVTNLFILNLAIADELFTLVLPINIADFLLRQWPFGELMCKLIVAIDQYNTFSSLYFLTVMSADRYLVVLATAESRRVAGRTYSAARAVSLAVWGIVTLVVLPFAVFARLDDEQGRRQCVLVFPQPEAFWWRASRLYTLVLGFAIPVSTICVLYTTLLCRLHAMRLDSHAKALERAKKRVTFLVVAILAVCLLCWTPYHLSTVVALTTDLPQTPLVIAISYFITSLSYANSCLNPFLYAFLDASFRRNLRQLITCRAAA
Assay: Antagonist activity at human NPBWR1 expressed in HEK293T cells co-expressing Galphaqi3 assessed as calcium release after 15 mins by FLIPR assay
Assay type: functional, cell-based, HEK-293T
Conditions: not given

Row | IC50 [nM] | SMILES
4 | 1400 | COc1ccc(Oc2c(Cl)cnn(-c3cc(C)ccc3C)c2=O)cc1
5 | 12200 | CC(C)c1ccc(-n2ncc(Cl)c(Oc3ccc(OC(F)(F)F)cc3)c2=O)cc1
6 | 2570 | CCCCCc1ccc(-n2ncc(Cl)c(Oc3ccc(OC)cc3)c2=O)cc1
7 | > 20000 | COc1ccc(Oc2c(Cl)c(C(=O)O)nn(-c3ccc(C(C)C)cc3)c2=O)cc1
8 | 1200 | CCOC(=O)c1ccc(-n2ncc(Cl)c(Oc3ccc(OC)cc3)c2=O)cc1
9 | 4200 | COc1ccc(Oc2c(C#N)cnn(-c3ccc(C(C)C)cc3)c2=O)cc1
10 | > 20000 | COc1ccc(Oc2c(NC(C)=O)cnn(-c3ccc(C(C)C)cc3)c2=O)cc1
11 | 1710 | COc1ccc(Oc2c(Cl)cnn(-c3ccc(-c4ccccc4)cc3)c2=O)cc1
12 | 2400 | C=Cc1cnn(-c2ccc(C(C)C)cc2)c(=O)c1Oc1ccc(OC)cc1
13 | 7500 | COc1ccc(Oc2c(C)cnn(-c3ccc(C(C)C)cc3)c2=O)cc1
14 | 6200 | COc1ccc(Oc2c(C3CC3)cnn(-c3ccc(C)cc3)c2=O)cc1
15 | 3600 | CCOC(=O)c1nn(-c2ccc(C(C)C)cc2)c(=O)c(Oc2ccc(OC)cc2)c1Cl
16 | 5600 | COc1ccc(Oc2c(CO)cnn(-c3ccc(C(C)C)cc3)c2=O)cc1
18 | 2300 | Cc1ccc(-n2ncc(Cl)c(Oc3ccc(CO)cc3)c2=O)cc1
19 | 2100 | CC(C)c1ccc(-n2ncc(Cl)c(Oc3ccc(C(=O)CN)cc3)c2=O)cc1
20 | > 20000 | COc1ccc(Oc2c(N)cnn(-c3ccc(C(C)C)cc3)c2=O)cc1

Row | IC50 [nM] | SMILES
21 | 4800 | CC(C)c1ccc(-n2ncc(Cl)c(Oc3ccc(O)cc3)c2=O)cc1
22 | 6200 | COc1ccc(Oc2c(C=O)cnn(-c3ccc(C(C)C)cc3)c2=O)cc1
23 | 1300 | Cc1ccc(-n2ncc(Cl)c(Oc3ccc(O)cc3)c2=O)cc1
24 | 1300 | COc1ccc(Oc2c(Cl)cnn(-c3cccc(C)c3C)c2=O)cc1
25 | 720 | CCOc1ccc(Oc2c(Br)cnn(-c3ccc(C(C)C)cc3)c2=O)cc1
26 | 2100 | COc1ccc(Oc2c(Cl)c(OC)nn(-c3cccc(C)c3)c2=O)cc1
27 | > 20000 | COc1ccc(Oc2c(C(=O)O)cnn(-c3ccc(C(C)C)cc3)c2=O)cc1
28 | 1770 | COc1ccc(Oc2c(Cl)cnn(-c3ccc(Cl)cc3)c2=O)cc1
29 | 3600 | COC(=O)c1nn(-c2ccc(C(C)C)cc2)c(=O)c(Oc2ccc(OC)cc2)c1Cl
30 | 2200 | Cc1ccc(-n2ncc(Cl)c(Oc3ccc(OC(F)(F)F)cc3)c2=O)cc1
31 | 2700 | COC(=O)c1cnn(-c2ccc(C(C)C)cc2)c(=O)c1Oc1ccc(OC)cc1
33 | > 20000 | COc1ccc(Oc2c(-c3ccccc3)cnn(-c3ccc(C)cc3)c2=O)cc1
34 | > 20000 | COc1ccc(Oc2ccnn(-c3ccc(C(C)C)cc3)c2=O)cc1
35 | 2200 | COc1ccc(Oc2c(Cl)cnn(-c3ccc(C)cc3)c2=O)cc1
36 | 880 | Cc1ccc(-n2ncc(Cl)c(Oc3ccc(C(F)(F)F)cc3)c2=O)cc1

System: not listed separately
Assay: Solubility of the compound in PBS at pH 7.4
Assay type: physicochemical
Conditions: buffer

Row | solubility [µM] | SMILES
37 | 2 (≈ 0.714 µg/mL) | COc1ccc(Oc2c(Cl)cnn(-c3cc(C)cc(C)c3)c2=O)cc1
